Source: patent US20240293405A1, “(1H-PYRROLO[2,3-B]PYRIDIN-1-YL)PYRIMIDIN-2-YL-AMINO-PHENYL-ACRYLAMIDE INHIBITORS OF EGFR FOR USE IN THE TREATMENT OF BRAIN TUMORS” (Dana-Farber Cancer Institute, Inc., priority 2021, published 2024)
Where “and” joins values, the source holds several entries; their conditions need not be identical. Equal entries are not always repeated. Entries after “also recorded” stand apart in the source; their conditions may differ. Where two headings read alike, the source gives them in different places.

Key:
CPEvIII GBM = assay: Intracranial orthotopic CPEvIII allograft in mice; format: in vivo, mouse
Procedure: Cells (100,000 cells resuspended in 1 μl PBS) were intracranially injected into the right striatum (0 mm anterior, 2 mm lateral, and 2.5 mm ventral to bregma) of 8-10 week-old ICR-SCID mice. Animals were monitored daily for development of neurological defects.
Neural stem cells (NSCs) from E14.5 embryonic mice (Cdkn2a-null; Ptenf/f) striata were isolated and cultured as previously described (Rietze, R. L., and Reynolds, B. A. (2006). Methods in enzymology 419, 3-23). NSCs were infected twice with adenovirus expressing Cre recombinase (AdCre; MOI50) (University of Iowa) to knock out floxed Pten. Cells were then transduced with retrovirus expressing EGFRvIII (pBabe-puro-EGFRvIII) (from Dr. Charles Stiles, DFCI) and selected with 1 μg/ml puromycin. The resulting cells (Cdkn2anull; Ptennull; EGFRvIII, denominated CPEvIII) can form a glioma after grafted into the mouse brain. Tumors were then isolated and mechanically dissociated for expansion in vitro and in vivo.
In GBM, EGFR mutations frequently coexist with CDKN2A deletion and PTEN deficiency (Brennan, C. W., et al. (2013). Cell 155, 462-477; Cancer Genome Atlas Research, N. (2008). Nature 455, 1061-1068). A syngeneic genetically engineered mouse (GEM) model of GBM driven by Cdkn2a and Pten double deletion concomitant with EGFRvIII expression (termed CPEvIII) has been generated. […]

[1] = Brain and plasma exposure after single oral dose; format: in vivo, Sprague Dawley rats; conditions: own data, oral dosing in rats
Text: Genfitinib concentrations were quantitated by LC-MS/MS from brain and plasma from Group 1 animals.

[2] = Pharmacokinetics in rats (IV, PO); format: in vivo, rat; conditions: for bioavailability: independent of dose
Text: Exposure was generally dose proportional.

P-gp = target: T1, P-gp (Homo sapiens, UniProt P08183); assay: P-glycoprotein inhibition (digoxin transport); format: in vitro ADME
T1 construct: expressed in transfected cells; host or cells: MDCKII-MDR1 cells
T1 sequence (P08183 whole entry): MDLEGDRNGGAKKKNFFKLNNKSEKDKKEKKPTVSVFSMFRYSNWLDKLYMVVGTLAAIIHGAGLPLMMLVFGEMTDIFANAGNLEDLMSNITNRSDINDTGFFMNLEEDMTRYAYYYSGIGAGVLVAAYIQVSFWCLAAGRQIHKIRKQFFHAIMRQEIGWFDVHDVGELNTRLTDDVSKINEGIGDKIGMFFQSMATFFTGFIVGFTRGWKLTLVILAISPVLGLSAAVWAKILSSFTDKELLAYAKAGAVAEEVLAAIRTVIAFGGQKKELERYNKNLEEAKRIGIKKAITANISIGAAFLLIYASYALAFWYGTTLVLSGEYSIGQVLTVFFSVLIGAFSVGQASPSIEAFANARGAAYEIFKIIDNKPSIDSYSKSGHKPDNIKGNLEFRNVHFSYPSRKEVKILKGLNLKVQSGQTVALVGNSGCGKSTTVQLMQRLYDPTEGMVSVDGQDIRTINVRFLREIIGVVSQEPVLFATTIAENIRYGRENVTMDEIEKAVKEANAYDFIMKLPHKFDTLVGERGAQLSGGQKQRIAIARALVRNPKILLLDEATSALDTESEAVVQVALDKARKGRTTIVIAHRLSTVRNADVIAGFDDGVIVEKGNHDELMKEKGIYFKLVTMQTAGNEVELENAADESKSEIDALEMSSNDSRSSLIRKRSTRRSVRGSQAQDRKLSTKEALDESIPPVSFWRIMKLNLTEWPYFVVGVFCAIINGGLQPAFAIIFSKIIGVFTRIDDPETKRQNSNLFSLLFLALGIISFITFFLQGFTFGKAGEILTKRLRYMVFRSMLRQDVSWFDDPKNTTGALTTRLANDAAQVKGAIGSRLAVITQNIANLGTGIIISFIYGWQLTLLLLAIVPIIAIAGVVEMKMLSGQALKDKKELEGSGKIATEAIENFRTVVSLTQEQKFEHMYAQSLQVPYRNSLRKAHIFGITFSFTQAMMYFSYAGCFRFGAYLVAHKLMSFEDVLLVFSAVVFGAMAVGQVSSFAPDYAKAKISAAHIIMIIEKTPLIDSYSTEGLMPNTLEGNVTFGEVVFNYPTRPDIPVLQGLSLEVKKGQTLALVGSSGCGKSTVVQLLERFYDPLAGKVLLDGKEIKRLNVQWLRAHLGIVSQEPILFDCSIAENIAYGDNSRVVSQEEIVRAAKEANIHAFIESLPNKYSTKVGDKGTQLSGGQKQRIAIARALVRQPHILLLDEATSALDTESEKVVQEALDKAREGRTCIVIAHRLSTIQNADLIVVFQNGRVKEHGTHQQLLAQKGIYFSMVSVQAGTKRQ
Text: Further understanding of DDI risk will await definition of Phase 2 doses and exposures.

[3] = Oral dog 4-week toxicity study with toxicokinetics; format: in vivo, beagle dogs; conditions: for HNSTD: 4-week oral
Procedure: Compound 1 (0, 10, 30, and 100 mg/kg/day) was given orally, once daily by gavage, to male and female beagle dogs (4/sex) for up to 28 days. […] The cause of death in this high-dose male was attributed to myocardial degeneration. This lesion was not observed in any other dog on study. Increases in alkaline phosphatase, globulin, cholesterol, triglycerides and fibrinogen and decreased reticulocyte counts noted in the high-dose group at mid-study returned towards baseline by the end of the study following 11/12 days of recovery. Testicular changes at all doses (seminiferous epithelial vacuolation at 10 and 30 mg/kg and degeneration/atrophy at 100 mg/kg) were not reversible in this short-term study; the reversibility period was not long enough to assess reversibility of testicular changes.
The increases were generally dose-proportional or greater-than dose-proportional on Day 1 and Day 28. Gender difference was not observed. No significant accumulation of Compound 1 or Compound 2 was observed.
Thirty-two beagle dogs (conventional, naive) were divided into four groups. Each group consists of four male and four female. Group 1 beagle dogs were administered vehicle and groups 2-4 beagle dogs were administered Compound 1 at 10 mg/kg, 30 mg/kg, and 100 mg/kg, respectively, by oral gavage once daily for 28 consecutive days (Table 15). […] Cmax (ng/mL) and AUClast (hr*ng/mL) of Compound 1 on day 1 were obtained for groups 2-4 (Table 15).

[4] = Plasma, brain and lung levels after 7 days oral dosing; format: in vivo, Sprague Dawley Rats; conditions: Sprague Dawley, rat, 24 hrs after last dosing
[5] = Brain and plasma exposure after single oral dose; format: in vivo, Sprague Dawley rats; conditions: Compound 1 30 mg/kg PO, 30 mg/kg; for concentration at 7 h / Kp at 7 h / concentration at 3 h: Sprague Dawley, rat, po; for Kp at 7 h: read-out: Brain/Plasma (ratios)
[6] = system: PC9GR4 cells (Ex19del/T790M); conditions: PC9GR4 cell line; Wang 2020; read-out: IC50, growth inhibition; cited from earlier work
NSCLC brain metastases = NSCLC brain metastases in SCID mice
BT179 cells = assay: Cell viability, patient-derived GBM line BT179; conditions: Homo sapiens, 72 h
Procedure: Primary human glioblastoma lines BT112, BT179 and BT333 were maintained in NeuroCult proliferation medium (human) (StemCell Technologies) with 20 ng/ml EGF, 10 ng/ml FGF and 0.0002% Heparin.
Cells were seeded in 96-well plates at a density of 1,000 cells per well and treated with two-fold serial dilutions of compounds with a starting concentration of 20 μM. Cell viability was assessed after three days of treatment by CellTiter-Glo (Promega). Curve fitting analysis and IC50 value determination were performed using GraphPad Prism 8.

[7] = both sexes, beagle, in vivo, dog, day 1, oral gavage

C=CC(=O)Nc1cc(Nc2nccc(-n3ccc4cccnc43)n2)c(OC)cc1N(C)CCN(C)C [Compound 1, N-(5-((4-(1H-pyrrolo[2,3-b]pyridin-1-yl)pyrimidin-2-yl)amino)-2-((2-(dimethylamino)ethyl)(methyl)amino)-4-methoxyphenyl)acrylamide]
body weight during treatment (CPEvIII GBM; 75 mg/kg QD): no significant loss of body weight
phosphorylation levels of EGFRvIII in tumors (IHC) (CPEvIII GBM; tumors at end point, 75 mg/kg): reduced
Brain Penetration (% of B/P ratio in preclinical model) [1]: 2830% (oral)
clearance [2]: moderately high clearance; also recorded: moderately high-clearance; also recorded: Moderate high-clearance
volume of distribution [2]: large volume of distribution
clearance ([2]; listed as Compound 11): relatively high clearance rate
bioavailability ([2]; rat, in vivo, po): ~50%
half-life ([2]; rat, plasma, Compound 2 as metabolite): ~5 h
Tmax ([2]; rat, plasma, po, Compound 2 as metabolite): ~5 h
bioavailability ([2]; rat, plasma, po): 50%
P-gp inhibition (P-gp): No P-gp inhibition
IC50 (P-gp; read-out: IC50, P-gp mediated transport of digoxin): > 30000 nM
mortality ([3]; 100 mg/kg/day, attributed to myocardial degeneration): one male was found dead on Day 13
Cmax ([3]; beagle, in vivo, po, dog Day 1, 10 mg/kg/day, Female): 142 ng/mL
AUC(0-t) ([3]; beagle, in vivo, po, dog Day 1, 10 mg/kg/day, Female, read-out: AUClast): 2060 ng·h/mL
Cmax ([3]; beagle, in vivo, po, dog Day 1, 10 mg/kg/day, Male): 166 ng/mL
AUC(0-t) ([3]; beagle, in vivo, po, dog Day 1, 10 mg/kg/day, Male, read-out: AUClast): 1650 ng·h/mL
Cmax ([3]; beagle, in vivo, po, dog Day 1, 30 mg/kg/day, Female): 170 ng/mL
AUC(0-t) ([3]; beagle, in vivo, po, dog Day 1, 30 mg/kg/day, Female, read-out: AUClast): 1960 ng·h/mL
Cmax ([3]; beagle, in vivo, po, dog Day 1, 30 mg/kg/day, Male): 317 ng/mL
AUC(0-t) ([3]; beagle, in vivo, po, dog Day 1, 30 mg/kg/day, Male, read-out: AUClast): 3790 ng·h/mL
Cmax ([3]; beagle, in vivo, po, dog Day 1, 100 mg/kg/day, Female): 293 ng/mL
AUC(0-t) ([3]; beagle, in vivo, po, dog Day 1, 100 mg/kg/day, Female, read-out: AUClast): 4060 ng·h/mL
Cmax ([3]; beagle, in vivo, po, dog Day 1, 100 mg/kg/day, Male): 367 ng/mL
AUC(0-t) ([3]; beagle, in vivo, po, dog Day 1, 100 mg/kg/day, Male, read-out: AUClast): 5190 ng·h/mL
NOAEL ([3]; both sexes, beagle, in vivo, oral, 4-week Dog toxicology): 10 mg/kg
Tmax [3, 7]: 4 h
half-life [3, 7]: 8 h
NOEL for myocardial risk ([3]; dog): 30 mg/kg
HNSTD ([3]; dog): 30 mg/kg
HNSTD ([3]; dog, estimated): 30 mg/kg/day
Cmax ([3]; female, beagle, in vivo, dog Day 28 mean, 10 mg/kg Compound 1 PO, F, Compound 2 as metabolite): 867 ng/mL
AUC(0-t) ([3]; female, beagle, in vivo, dog Day 28 mean, 10 mg/kg Compound 1 PO, F, Compound 2 as metabolite, read-out: AUC0-24): 6540 ng·h/mL
Cmax ([3]; female, beagle, in vivo, dog Day 28 mean, 30 mg/kg Compound 1 PO, F, Compound 2 as metabolite): 508 ng/mL
AUC(0-t) ([3]; female, beagle, in vivo, dog Day 28 mean, 30 mg/kg Compound 1 PO, F, Compound 2 as metabolite, read-out: AUC0-24): 3490 ng·h/mL
human equivalent dose (HED) of the NOEL for myocardial risk ([3]; from dog NOEL 30 mg/kg): 15 mg/kg
Cmax ([3]; male, beagle, in vivo, dog Day 28 mean, 10 mg/kg Compound 1 PO, M, Compound 2 as metabolite): 578 ng/mL
AUC(0-t) ([3]; male, beagle, in vivo, dog Day 28 mean, 10 mg/kg Compound 1 PO, M, Compound 2 as metabolite, read-out: AUC0-24): 3880 ng·h/mL
Cmax ([3]; male, beagle, in vivo, dog Day 28 mean, 30 mg/kg Compound 1 PO, M, Compound 2 as metabolite): 974 ng/mL
AUC(0-t) ([3]; male, beagle, in vivo, dog Day 28 mean, 30 mg/kg Compound 1 PO, M, Compound 2 as metabolite, read-out: AUC0-24): 7180 ng·h/mL
concentration at 24 h ([4]; brain, 10 mg/kg po qd 7 days, Female, read-out: Brain): 39.8 ng/g
concentration at 24 h ([4]; brain, 10 mg/kg po qd 7 days, Male, read-out: Brain): 14.9 ng/g
concentration at 24 h ([4]; brain, 50 mg/kg po qd 7 days, Female, read-out: Brain): 3770 ng/g
concentration at 24 h ([4]; brain, 50 mg/kg po qd 7 days, Male, read-out: Brain): 2080 ng/g
concentration at 24 h ([4]; lung, 10 mg/kg po qd 7 days, Female, read-out: Lung): 1220 ng/g
concentration at 24 h ([4]; lung, 10 mg/kg po qd 7 days, Male, read-out: Lung): 329 ng/g
concentration at 24 h ([4]; lung, 50 mg/kg po qd 7 days, Female, read-out: Lung): 45000 ng/g
concentration at 24 h ([4]; lung, 50 mg/kg po qd 7 days, Male, read-out: Lung): 9710 ng/g
concentration at 24 h ([4]; plasma, 10 mg/kg po qd 7 days, Female, read-out: Plasma): 20.8 ng/mL
concentration at 24 h ([4]; plasma, 10 mg/kg po qd 7 days, Male, read-out: Plasma): 10.6 ng/mL
concentration at 24 h ([4]; plasma, 50 mg/kg po qd 7 days, Female, read-out: Plasma): 244 ng/mL
concentration at 24 h ([4]; plasma, 50 mg/kg po qd 7 days, Male, read-out: Plasma): 149 ng/mL
Plasma Concentration ([5]; 3 hr, individual animal): 181 ng/mL and 229 ng/mL and 273 ng/mL
Brain Tissue Concentration ([5]; 7 hr, individual animal): 8280 ng/g and 5210 ng/g and 7400 ng/g
Brain/Plasma (ratios) ([5]; 7 hr, individual animal): 31.2 and 26.4
Plasma Concentration ([5]; 7 hr, individual animal): 265 ng/mL and 197 ng/mL and 275 ng/mL
concentration at 7 h ([5]; brain, 7 hr, individual animal, read-out: Brain Tissue Concentration): 7400 ng/g
Kp at 7 h ([5]; brain, 7 hr, individual animal): 26.9
concentration at 7 h ([5]; brain, 7 hr, mean n=3, read-out: Brain Tissue Concentration): 6960 ng/g
Kp at 7 h ([5]; brain, 7 hr, mean n=3): 28.3
concentration at 3 h ([5]; plasma, 3 hr, individual animal): 273 ng/mL
concentration at 3 h ([5]; plasma, 3 hr, mean n=3): 228 ng/mL
concentration at 7 h ([5]; plasma, 7 hr, individual animal, read-out: Plasma Concentration): 275 ng/mL
concentration at 7 h ([5]; plasma, 7 hr, mean n=3, read-out: Plasma Concentration): 246 ng/mL
IC50 [6]: 3.66 nM
Median survival (NSCLC brain metastases; 25 mpk, control 28.5 Days): 80.5 days
brain metastases relative to control post-treatment (NSCLC brain metastases; Compound 1 25-50 mg/kg, osimertinib 25 mg/kg): Reduced brain metastases
IC50 (BT179 cells): 893 nM
